Assay: solvent given as SMILES
[1] = in CCCCCCCCC=CCCCCCCCC(=O)OCC(COC(=O)CCCCCCCC=CCCCCCCCC)OC(=O)CCCCCCCC=CCCCCCCCC

SMILES: O=[N+]([O-])c1ccc(Cl)c(Cl)c1
- solvation free energy, 298 K (in C1CCCCC1): -8.7 kcal/mol
- solvation free energy, 298 K (in CC(C)O): -8.04 kcal/mol
- solvation free energy, 298 K (in CCCCCC): -7.78 kcal/mol
- solvation free energy, 298 K (in CCCCCCC): -7.65 kcal/mol
- solvation free energy, 298 K [1]: -7.34 kcal/mol
- solvation free energy, 298 K (in CCCCO): -8.08 kcal/mol
- solvation free energy, 298 K (in CCCO): -8.26 kcal/mol
- solvation free energy, 298 K (in CCO): -8.24 kcal/mol
- solvation free energy, 298 K (in CCOC(C)=O): -9.16 kcal/mol
- solvation free energy, 298 K (in CO): -8.41 kcal/mol
- solvation free energy, 298 K (in ClC(Cl)(Cl)Cl): -9.07 kcal/mol

SMILES: Clc1cc(Cl)c(-c2c(Cl)cc(Cl)cc2Cl)c(Cl)c1
- solvation free energy, 298 K (in CCCCCCCCO): -12.5 kcal/mol
- solvation free energy, 298 K (in O): -1.96 kcal/mol

SMILES: CC(C)Cl
- solvation free energy, 298 K (in C=CCCCCCCCCCCCCCC): -2.78 kcal/mol
- solvation free energy, 298 K (in O): -0.23 kcal/mol

SMILES: Clc1cc2c(cc1Cl)Oc1ccccc1O2
- solvation free energy, 298 K (in O): -3.56 kcal/mol

SMILES: CC(=O)C1COCCOCCOCCOCCOc2ccccc2O1 (stereo unspecified)
- solvation free energy, 298 K (in Cc1cccc(C)c1): -19.2 kcal/mol
- solvation free energy, 298 K (in O): -17.8 kcal/mol

SMILES: CC(=O)OC(C)C
- solvation free energy, 298 K (in CC(C)CCCC(C)CCCC(C)CCCCC(C)CCCC(C)CCCC(C)C): -3.52 kcal/mol
- solvation free energy, 298 K (in CCCCCCCCCC): -3.79 kcal/mol
- solvation free energy, 298 K (in CCCCCCCCCCCCCCCC): -3.55 kcal/mol
- solvation free energy, 298 K (in CCCCCCCCO): -3.99 kcal/mol
- solvation free energy, 298 K (in O): -2.59 kcal/mol
- solvation free energy, 298 K (in [2H]O[2H]): -2.62 kcal/mol

SMILES: C=C(C)C1CC=C(C)C(OC(=O)CCC)C1 (stereo unspecified)
- solvation free energy, 298 K (in O): -3.9 kcal/mol

SMILES: Cc1ccc(C(=O)N(C)C)cc1
- solvation free energy, 298 K (in O): -9.76 kcal/mol

SMILES: C=C(C)CCC
- solvation free energy, 298 K (in O): 1.46 kcal/mol

SMILES: CCCCCCCCCC(=O)c1c(C)[nH]n(-c2ccccc2)c1=O
- solvation free energy, 298 K (in O): -8.46 kcal/mol

SMILES: CCCCCCCCCCCO
- solvation free energy, 298 K (in CCCCCCCCCCO): -10.3 kcal/mol

SMILES: CCCCCCC(=O)O
- solvation free energy, 298 K (in O): -6.12 kcal/mol

SMILES: Clc1ccc2c(c1)Oc1cc(Cl)c(Cl)c(Cl)c1O2
- solvation free energy, 298 K (in O): -3.84 kcal/mol

SMILES: c1ccc(-c2ccccc2)cc1
- solvation free energy, 298 K (in C1COCCO1): -9.29 kcal/mol
- solvation free energy, 298 K (in CC(C)(C)O): -8.06 kcal/mol
- solvation free energy, 298 K (in CC(C)CC(C)(C)C): -8.32 kcal/mol
- solvation free energy, 298 K (in CC(C)CC(C)O): -8.13 kcal/mol
- solvation free energy, 298 K (in CC(C)CCO): -8.16 kcal/mol
- solvation free energy, 298 K (in CC(C)CO): -8.03 kcal/mol
- solvation free energy, 298 K (in CC(C)O): -8.09 kcal/mol
- solvation free energy, 298 K (in CC(C)OCCO): -8.73 kcal/mol
- solvation free energy, 298 K (in CCC(C)(C)O): -8.3 kcal/mol
- solvation free energy, 298 K (in CCC(C)O): -8.19 kcal/mol
- solvation free energy, 298 K (in CCCC(C)CO): -8.24 kcal/mol
- solvation free energy, 298 K (in CCCC(C)O): -8.25 kcal/mol
- solvation free energy, 298 K (in CCCCC(CC)CO): -8.27 kcal/mol
- solvation free energy, 298 K (in CCCCCC): -8.53 kcal/mol
- solvation free energy, 298 K (in CCCCCCC): -8.54 kcal/mol
- solvation free energy, 298 K (in CCCCCCCC): -8.53 kcal/mol
- solvation free energy, 298 K [1]: -8.8 kcal/mol
- solvation free energy, 298 K (in CCCCCCCCCC): -8.49 kcal/mol
- solvation free energy, 298 K (in CCCCCCCCO): -8.39 kcal/mol
- solvation free energy, 298 K (in CCCCCCCO): -8.36 kcal/mol
- solvation free energy, 298 K (in CCCCCCO): -8.34 kcal/mol
- solvation free energy, 298 K (in CCCCCO): -8.34 kcal/mol
- solvation free energy, 298 K (in CCCCOCCCC): -8.85 kcal/mol
- solvation free energy, 298 K (in CCCCOCCO): -8.65 kcal/mol
- solvation free energy, 298 K (in CCCO): -8.25 kcal/mol
- solvation free energy, 298 K (in CCCOCCO): -8.76 kcal/mol
- solvation free energy, 298 K (in CCO): -8.23 kcal/mol
- solvation free energy, 298 K (in CCOCC): -8.59 kcal/mol
- solvation free energy, 298 K (in CCOCCO): -8.74 kcal/mol
- solvation free energy, 298 K (in CN(C)C=O): -9.33 kcal/mol
- solvation free energy, 298 K (in CO): -7.88 kcal/mol
- solvation free energy, 298 K (in COC(C)(C)C): -9.04 kcal/mol
- solvation free energy, 298 K (in COC(C)CCO): -8.68 kcal/mol
- solvation free energy, 298 K (in ClC(Cl)(Cl)Cl): -9.22 kcal/mol
- solvation free energy, 298 K (in ClCCCl): -9.34 kcal/mol
- solvation free energy, 298 K (in ClCCl): -9.4 kcal/mol
- solvation free energy, 298 K (in Clc1ccccc1): -9.26 kcal/mol
- solvation free energy, 298 K (in O): -2.66 kcal/mol

SMILES: COS(=O)(=O)OC
- solvation free energy, 298 K (in O): -5.1 kcal/mol

SMILES: CCCOCCOC(=O)c1ccccc1C(=O)OCCOCCC
- solvation free energy, 298 K (in O): -13.2 kcal/mol

SMILES: Cc1ccc(O)c(C)c1
- solvation free energy, 298 K (in CCCCCC): -6.51 kcal/mol
- solvation free energy, 298 K (in CCCCCCC): -6.48 kcal/mol
- solvation free energy, 298 K (in CCCCCCCC): -6.46 kcal/mol
- solvation free energy, 298 K (in O): -6.02 kcal/mol

SMILES: FC(F)(Cl)Cl
- solvation free energy, 298 K (in CCCCCCC): -1.8 kcal/mol
- solvation free energy, 298 K (in CCCCCCCC): -1.76 kcal/mol
- solvation free energy, 298 K (in CCCCCCCC(=O)OCC(COC(=O)CCCCCCC)OC(=O)CCCCCCC): -1.36 kcal/mol
- solvation free energy, 298 K (in CCCCCCCCC): -1.68 kcal/mol
- solvation free energy, 298 K (in CCCCCCCCO): -1.34 kcal/mol
- solvation free energy, 298 K (in ClC(Cl)(Cl)Cl): -1.92 kcal/mol

SMILES: COCc1ccc(C(=O)O)cc1
- solvation free energy, 298 K (in C=CCCCCCCCCCCCCCC): -8.27 kcal/mol
- solvation free energy, 298 K (in O): -9.89 kcal/mol

SMILES: CCCCC(=O)CC
- solvation free energy, 298 K (in CCCCCCC): -5.42 kcal/mol
- solvation free energy, 298 K (in CCCCO): -5.8 kcal/mol
- solvation free energy, 298 K (in CO): -5.85 kcal/mol
- solvation free energy, 298 K (in O): -3.04 kcal/mol

SMILES: CCI
- solvation free energy, 298 K (in Brc1cccc2ccccc12): -3.97 kcal/mol
- solvation free energy, 298 K (in Brc1ccccc1): -4.23 kcal/mol
- solvation free energy, 298 K (in C1CCOC1): -4.45 kcal/mol
- solvation free energy, 298 K (in C1COCCO1): -4.21 kcal/mol
- solvation free energy, 298 K (in C=CCCCCCCCCCCCCCC): -3.53 kcal/mol
- solvation free energy, 298 K (in CC1COC(=O)O1): -3.71 kcal/mol
- solvation free energy, 298 K (in CC#N): -3.81 kcal/mol
- solvation free energy, 298 K (in CC(=O)N(C)C): -3.97 kcal/mol
- solvation free energy, 298 K (in CC(=O)OCc1ccccc1): -3.91 kcal/mol
- solvation free energy, 298 K (in CC(=O)c1ccccc1): -4.05 kcal/mol
- solvation free energy, 298 K (in CC(C)(C)O): -3.48 kcal/mol
- solvation free energy, 298 K (in CC(C)=O): -4 kcal/mol
- solvation free energy, 298 K (in CC(C)CC(C)(C)C): -3.61 kcal/mol
- solvation free energy, 298 K (in CC(C)CCO): -3.75 kcal/mol
- solvation free energy, 298 K (in CC(C)O): -3.56 kcal/mol
- solvation free energy, 298 K (in CCC#N): -3.94 kcal/mol
- solvation free energy, 298 K (in CCC(C)=O): -4.1 kcal/mol
- solvation free energy, 298 K (in CCCBr): -4.31 kcal/mol
- solvation free energy, 298 K (in CCCCCC): -3.73 kcal/mol
- solvation free energy, 298 K (in CCCCCCC): -3.68 kcal/mol
- solvation free energy, 298 K (in CCCCCCCC): -3.66 kcal/mol
- solvation free energy, 298 K (in CCCCCCCCO): -3.53 kcal/mol
- solvation free energy, 298 K (in CCCCCl): -4.15 kcal/mol
- solvation free energy, 298 K (in CCCCO): -3.63 kcal/mol
- solvation free energy, 298 K (in CCCO): -3.55 kcal/mol
- solvation free energy, 298 K (in CCO): -3.57 kcal/mol
- solvation free energy, 298 K (in CCOC(=O)c1ccccc1): -3.99 kcal/mol
- solvation free energy, 298 K (in CCOC(C)=O): -4.04 kcal/mol
- solvation free energy, 298 K (in CCOCC): -3.78 kcal/mol
- solvation free energy, 298 K (in CN(C)C=O): -3.83 kcal/mol
- solvation free energy, 298 K (in CO): -3.58 kcal/mol
- solvation free energy, 298 K (in CS(C)=O): -3.82 kcal/mol
- solvation free energy, 298 K (in Cc1ccc(C)cc1): -4.14 kcal/mol
- solvation free energy, 298 K (in Cc1ccccc1): -4.2 kcal/mol
- solvation free energy, 298 K (in ClC1CCCCC1): -4.19 kcal/mol
- solvation free energy, 298 K (in ClC(Cl)(Cl)Cl): -4.17 kcal/mol
- solvation free energy, 298 K (in ClC(Cl)C(Cl)Cl): -4.41 kcal/mol
- solvation free energy, 298 K (in ClC(Cl)Cl): -4.44 kcal/mol
- solvation free energy, 298 K (in ClCCCl): -4.2 kcal/mol
- solvation free energy, 298 K (in ClCCl): -4.12 kcal/mol
- solvation free energy, 298 K (in Clc1ccccc1): -4.22 kcal/mol
- solvation free energy, 298 K (in Ic1ccccc1): -4.29 kcal/mol
- solvation free energy, 298 K (in N#Cc1ccccc1): -4 kcal/mol
- solvation free energy, 298 K (in O): -0.74 kcal/mol
- solvation free energy, 298 K (in O=C1CCCCC1): -4.18 kcal/mol
- solvation free energy, 298 K (in c1ccc2ncccc2c1): -3.93 kcal/mol
- solvation free energy, 298 K (in c1ccccc1): -4.32 kcal/mol

SMILES: Clc1ccc2c(c1)Oc1ccccc1O2
- solvation free energy, 298 K (in O): -3.1 kcal/mol

SMILES: CC=C(C)C=CC=C(C)C
- solvation free energy, 298 K (in O): -0.55 kcal/mol

SMILES: CC(C)SC(C)C
- solvation free energy, 298 K (in O): -1.21 kcal/mol

SMILES: CC(C)Cc1ccccc1
- solvation free energy, 298 K (in O): 0.19 kcal/mol

SMILES: ClC1C(Cl)C(Cl)C(Cl)C(Cl)C1Cl (stereo unspecified)
- solvation free energy, 298 K [1]: -11.2 kcal/mol
- solvation free energy, 298 K (in CCCCCCCCO): -10.9 kcal/mol

SMILES: CCCCCCCC(C)=O
- solvation free energy, 298 K (in NC=O): -5.43 kcal/mol
- solvation free energy, 298 K (in O): -2.5 kcal/mol

SMILES: Clc1cc(Cl)c(Cl)c(Cl)c1Cl
- solvation free energy, 298 K [1]: -8.79 kcal/mol
- solvation free energy, 298 K (in CCCCCCCCO): -8.85 kcal/mol
- solvation free energy, 298 K (in O): -1.69 kcal/mol

SMILES: CCC(C)C(C)O (stereo unspecified)
- solvation free energy, 298 K (in CCCCCCCC): -4.87 kcal/mol
- solvation free energy, 298 K (in CCCCCCCCCC): -4.81 kcal/mol

SMILES: CCCCC(=O)CC(C)=O
- solvation free energy, 298 K (in O): -4.28 kcal/mol

SMILES: C1CCCNCC1
- solvation free energy, 298 K (in C1CCCCC1): -5.66 kcal/mol

SMILES: CC(C)Br
- solvation free energy, 298 K (in C=CCCCCCCCCCCCCCC): -3.29 kcal/mol
- solvation free energy, 298 K (in O): -0.48 kcal/mol

Source: the CombiSolv-Exp solvation set (Vermeire and Green 2021)
